Laboratory results from PubChem BioAssay (NCI).
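At the GI50, growth is halved. The concentration for full growth arrest is given as TGI.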

Key:
Assay in all cases: NCI tumour cell line growth inhibition, 384-well format
[1] = test system: 786-0 renal
[2] = test system: A498 renal
[3] = test system: A549 NSCLC
[4] = test system: ACHN renal
[5] = test system: BT-549 breast
[6] = test system: CAKI-1 renal
[7] = test system: CCRF-CEM leukemia
[8] = test system: COLO 205 colon
[9] = test system: DU-145 prostate
[10] = test system: HCT-15 colon
[11] = test system: HL-60(TB) leukemia
[12] = test system: HOP-62 NSCLC
[13] = test system: HOP-92 NSCLC
[14] = test system: HT29 colon
[15] = test system: IGROV1 ovarian
[16] = test system: K-562 leukemia
[17] = test system: KM12 colon
[18] = test system: LOX IMVI melanoma
[19] = test system: M14 melanoma
[20] = test system: MALME-3M melanoma
[21] = test system: MCF7 breast
[22] = test system: MDA-MB-231 breast
[23] = test system: MDA-MB-435 melanoma
[24] = test system: MDA-MB-468 breast
[25] = test system: MOLT-4 leukemia
[26] = test system: NCI-H226 lung
[27] = test system: NCI-H23 lung
[28] = test system: NCI-H322M lung
[29] = test system: NCI-H460 NSCLC
[30] = test system: NCI-H522 lung
[31] = test system: NCI/ADR-RES ovarian
[32] = test system: OVCAR-3 ovarian
[33] = test system: OVCAR-4 ovarian
[34] = test system: OVCAR-5 ovarian
[35] = test system: OVCAR-8 ovarian
[36] = test system: PC-3 prostate
[37] = test system: RPMI-8226 leukemia
[38] = test system: RXF 393 renal
[39] = test system: SF-295 CNS
[40] = test system: SF-539 CNS
[41] = test system: SK-MEL-2 melanoma
[42] = test system: SK-MEL-28 melanoma
[43] = test system: SK-MEL-5 melanoma
[44] = test system: SK-OV-3 ovarian
[45] = test system: SN12C renal
[46] = test system: SR leukemia
[47] = test system: SW-620 colon
[48] = test system: T-47D breast
[49] = test system: TK-10 renal
[50] = test system: U251 glioblastoma
[51] = test system: UACC-257 melanoma
[52] = test system: UACC-62 melanoma
[53] = test system: UO-31 renal

CN(C(=O)c1ccc(C(F)(F)F)cc1)c1ccc(Oc2ccc3c(c2)cc(C(=O)N2CCN(Cc4ccc(OC(F)F)cc4)CC2)n3C)nc1
GI50 [1]: > 100 µM | TGI [1]: > 100 µM | GI50 [2]: < 0.01 µM | TGI [2]: 0.0209 µM | GI50 [3]: < 0.01 µM | TGI [3]: > 100 µM | GI50 [4]: > 100 µM | TGI [4]: > 100 µM | GI50 [5]: 1.27 µM | TGI [5]: > 100 µM | GI50 [6]: > 100 µM | TGI [6]: > 100 µM | GI50 [7]: < 0.01 µM | TGI [7]: 1.04 µM | GI50 [8]: > 100 µM | TGI [8]: > 100 µM | GI50 [9]: > 100 µM | TGI [9]: > 100 µM | GI50 [10]: 6.41 µM | TGI [10]: > 100 µM | GI50 [11]: 1.01 µM | TGI [11]: 2.56 µM | GI50 [12]: < 0.01 µM | TGI [12]: > 100 µM | GI50 [13]: 0.864 µM | TGI [13]: > 100 µM | GI50 [14]: > 100 µM | TGI [14]: > 100 µM | GI50 [15]: 0.0201 µM | TGI [15]: > 100 µM | GI50 [16]: < 0.01 µM | TGI [16]: > 100 µM | GI50 [17]: > 100 µM | TGI [17]: > 100 µM | GI50 [18]: < 0.01 µM | TGI [18]: > 100 µM | GI50 [19]: 6.53 µM | TGI [19]: > 100 µM | GI50 [20]: > 100 µM | TGI [20]: > 100 µM | GI50 [21]: 0.136 µM | TGI [21]: > 100 µM | GI50 [22]: < 0.01 µM | TGI [22]: > 100 µM | GI50 [23]: > 100 µM | TGI [23]: > 100 µM | GI50 [24]: < 0.01 µM | TGI [24]: < 0.01 µM | GI50 [25]: < 0.01 µM | TGI [25]: 1.42 µM | GI50 [26]: 0.431 µM | TGI [26]: > 100 µM | GI50 [27]: < 0.01 µM | TGI [27]: < 0.01 µM | GI50 [28]: < 0.01 µM | TGI [28]: > 100 µM | GI50 [29]: < 0.01 µM | TGI [29]: < 0.01 µM | GI50 [30]: < 0.01 µM | TGI [30]: > 100 µM | GI50 [31]: < 0.01 µM | TGI [31]: 0.0671 µM | GI50 [32]: 3.02 µM | TGI [32]: > 100 µM | GI50 [33]: < 0.01 µM | TGI [33]: > 100 µM | GI50 [34]: > 100 µM | TGI [34]: > 100 µM | GI50 [35]: < 0.01 µM | TGI [35]: > 100 µM | GI50 [36]: 3.48 µM | TGI [36]: > 100 µM | GI50 [37]: < 0.01 µM | TGI [37]: < 0.01 µM | GI50 [38]: < 0.01 µM | TGI [38]: < 0.01 µM | GI50 [39]: 0.0107 µM | TGI [39]: > 100 µM | GI50 [40]: > 100 µM | TGI [40]: > 100 µM | GI50 [41]: > 100 µM | TGI [41]: > 100 µM | GI50 [42]: > 100 µM | TGI [42]: > 100 µM | GI50 [43]: < 0.01 µM | TGI [43]: 0.95 µM | GI50 [44]: < 0.01 µM | TGI [44]: > 100 µM | GI50 [45]: > 100 µM | TGI [45]: > 100 µM | GI50 [46]: < 0.01 µM | TGI [46]: < 0.01 µM | GI50 [47]: 8.11 µM | TGI [47]: > 100 µM | GI50 [48]: < 0.01 µM | TGI [48]: 6.89 µM | GI50 [49]: 2.97 µM | TGI [49]: > 100 µM | GI50 [50]: < 0.01 µM | TGI [50]: > 100 µM | GI50 [51]: < 0.01 µM | TGI [51]: 2.84 µM | GI50 [52]: > 100 µM | TGI [52]: > 100 µM | GI50 [53]: > 100 µM | TGI [53]: > 100 µM
